# Reference: ChEMBL document CHEMBL1201862, “PubChem BioAssay data set” (2004)
#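 All cell lines were grown in 96-well plates and treated with compound for 48 hours. GI50 marks 50% less growth.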 The source made the active and inactive calls. Rule as the data show it: active = GI50 up to about 1.1 µM and inactive = higher.
# Legend:
# Experiment in all cases: NCI tumour cell line growth inhibition, 48 h
# IGROV-1 = system: IGROV-1
# A549 = system: A549
# UACC-257 = system: UACC-257
# 786-0 = system: 786-0
# K562 = system: K562
# SK-OV-3 = system: SK-OV-3
# CAKI-1 = system: CAKI-1
# HCT-15 = system: HCT-15
# BT-549 = system: BT-549
# SF-295 = system: SF-295
# HT-29 = system: HT-29
# SK-MEL-2 = system: SK-MEL-2
# HCC 2998 = system: HCC 2998
# UO-31 = system: UO-31
# NCI-H522 = system: NCI-H522
# HOP-92 = system: HOP-92
# OVCAR-5 = system: OVCAR-5
# RXF 393 = system: RXF 393
# HL-60 = system: HL-60
# OVCAR-8 = system: OVCAR-8
# SW-620 = system: SW-620
# UACC-62 = system: UACC-62
# SNB-19 = system: SNB-19
# SNB-75 = system: SNB-75
# CCRF-CEM = system: CCRF-CEM
# U-251 = system: U-251
# MCF7 = system: MCF7
# EKVX = system: EKVX
# SK-MEL-28 = system: SK-MEL-28
# MDA-MB-231 = system: MDA-MB-231
# A498 = system: A498
# OVCAR-4 = system: OVCAR-4
# HCT-116 = system: HCT-116
# HOP-62 = system: HOP-62
# OVCAR-3 = system: OVCAR-3
# RPMI-8226 = system: RPMI-8226
# SF-268 = system: SF-268
# ACHN = system: ACHN
# MDA-N = system: MDA-N
# MOLT-4 = system: MOLT-4
# Malme-3M = system: Malme-3M
# NCI/ADR-RES = system: NCI/ADR-RES
# SK-MEL-5 = system: SK-MEL-5
# NCI-H460 = system: NCI-H460
# COLO 205 = system: COLO 205
# NCI-H23 = system: NCI-H23
# SN12C = system: SN12C
# KM12 = system: KM12
# SF-539 = system: SF-539
# PC-3 = system: PC-3
# T47D = system: T47D
# MDA-MB-435 = system: MDA-MB-435
# TK-10 = system: TK-10
# Hs-578T = system: Hs-578T
# NCI-H226 = system: NCI-H226
# DU-145 = system: DU-145
# LOX IMVI = system: LOX IMVI
# M14 = system: M14
# SR = system: SR
smiles,measurement,setting,value
COC(=O)CN1Cc2cc(C)cc(c2O)CN(CC(=O)OC)Cc2cc(C)cc(c2O)CN(CC(=O)OC)Cc2cc(C)cc(c2O)C1,GI50,IGROV-1,> 100 µM (inactive)
same,GI50,A549,> 100 µM (inactive)
same,GI50,UACC-257,> 100 µM (inactive)
same,GI50,786-0,> 100 µM (inactive)
same,GI50,K562,> 100 µM (inactive)
same,GI50,SK-OV-3,> 45.5 µM (inactive)
same,GI50,CAKI-1,> 100 µM (inactive)
same,GI50,HCT-15,> 66.4 µM
same,GI50,BT-549,> 100 µM (inactive)
same,GI50,SF-295,> 61.8 µM (inactive)
same,GI50,HT-29,> 47.9 µM (inactive)
same,GI50,SK-MEL-2,> 39.8 µM (inactive)
same,GI50,HCC 2998,2.03 µM (inactive)
same,GI50,UO-31,> 44 µM (inactive)
same,GI50,NCI-H522,> 100 µM (inactive)
same,GI50,HOP-92,> 81.8 µM (inactive)
same,GI50,OVCAR-5,26.4 µM (inactive)
same,GI50,RXF 393,> 33.7 µM (inactive)
same,GI50,HL-60,15.4 µM (inactive)
same,GI50,OVCAR-8,> 100 µM (inactive)
same,GI50,SW-620,> 87.3 µM (inactive)
same,GI50,UACC-62,> 100 µM (inactive)
same,GI50,SNB-19,> 100 µM (inactive)
same,GI50,SNB-75,> 33.4 µM (inactive)
same,GI50,CCRF-CEM,6.76 µM (inactive)
same,GI50,U-251,> 45.8 µM (inactive)
same,GI50,MCF7,> 42 µM (inactive)
same,GI50,EKVX,> 100 µM (inactive)
same,GI50,SK-MEL-28,99.8 µM (inactive)
same,GI50,MDA-MB-231,> 36.8 µM (inactive)
same,GI50,A498,> 51.8 µM (inactive)
same,GI50,OVCAR-4,> 100 µM (inactive)
same,GI50,HCT-116,12.6 µM (inactive)
same,GI50,HOP-62,> 40.3 µM (inactive)
same,GI50,OVCAR-3,> 58.2 µM (inactive)
same,GI50,RPMI-8226,> 100 µM (inactive)
same,GI50,SF-268,> 100 µM (inactive)
same,GI50,ACHN,> 47.1 µM (inactive)
same,GI50,MDA-N,> 87.9 µM (inactive)
same,GI50,MOLT-4,> 100 µM (inactive)
same,GI50,Malme-3M,> 100 µM (inactive)
same,GI50,NCI/ADR-RES,> 100 µM (inactive)
same,GI50,SK-MEL-5,> 57.5 µM (inactive)
same,GI50,NCI-H460,0.272 µM (active)
same,GI50,COLO 205,> 54.3 µM (inactive)
same,GI50,NCI-H23,> 100 µM (inactive)
same,GI50,SN12C,> 100 µM (inactive)
same,GI50,KM12,> 56.2 µM (inactive)
same,GI50,SF-539,> 80.2 µM (inactive)
same,GI50,PC-3,> 32.9 µM (inactive)
same,GI50,T47D,> 20.1 µM (inactive)
same,GI50,MDA-MB-435,> 100 µM (inactive)
same,GI50,TK-10,> 79.8 µM (inactive)
same,GI50,Hs-578T,> 100 µM (inactive)
same,GI50,NCI-H226,> 37.4 µM (inactive)
same,GI50,DU-145,> 41 µM (inactive)
same,GI50,LOX IMVI,> 65.8 µM (inactive)
same,GI50,M14,> 37.8 µM (inactive)
COC(=O)C1=C(O)C(C(=O)OC)[C@@]2(O)[C@@H](C(=O)OC)C(c3ccc(OC(=O)/C(=C/c4ccc(Cl)cc4)c4ccc(Cl)cc4)cc3)C[C@@H]1[C@@H]2C(=O)OC (stereo not given in full),GI50,IGROV-1,20.2 µM (inactive)
same,GI50,A549,77.4 µM (inactive)
same,GI50,UACC-257,52.6 µM (inactive)
same,GI50,786-0,22 µM (inactive)
same,GI50,K562,22.3 µM (inactive)
same,GI50,SK-OV-3,> 100 µM (inactive)
same,GI50,CAKI-1,15.9 µM (inactive)
same,GI50,SR,9.06 µM (inactive)
same,GI50,HCT-15,18.5 µM
same,GI50,BT-549,95.7 µM (inactive)
same,GI50,SF-295,29.8 µM (inactive)
same,GI50,HT-29,38.5 µM (inactive)
same,GI50,SK-MEL-2,14.3 µM (inactive)
same,GI50,UO-31,12.6 µM (inactive)
same,GI50,NCI-H522,36.6 µM (inactive)
same,GI50,HOP-92,19.5 µM (inactive)
same,GI50,OVCAR-5,30.1 µM (inactive)
same,GI50,RXF 393,11.2 µM (inactive)
same,GI50,HL-60,34.6 µM (inactive)
same,GI50,OVCAR-8,41 µM (inactive)
same,GI50,SW-620,31.1 µM (inactive)
same,GI50,UACC-62,7.29 µM (inactive)
same,GI50,SNB-19,61.9 µM (inactive)
same,GI50,SNB-75,28.3 µM (inactive)
same,GI50,CCRF-CEM,6.3 µM (inactive)
same,GI50,U-251,24.4 µM (inactive)
same,GI50,MCF7,20.6 µM (inactive)
same,GI50,EKVX,33.8 µM (inactive)
same,GI50,SK-MEL-28,> 100 µM (inactive)
same,GI50,MDA-MB-231,19.1 µM (inactive)
same,GI50,A498,> 100 µM (inactive)
same,GI50,OVCAR-4,20.6 µM (inactive)
same,GI50,HCT-116,11.3 µM (inactive)
same,GI50,HOP-62,> 100 µM (inactive)
same,GI50,OVCAR-3,51.1 µM (inactive)
same,GI50,SF-268,99.3 µM (inactive)
same,GI50,ACHN,32.4 µM (inactive)
same,GI50,MDA-N,17.5 µM (inactive)
same,GI50,MOLT-4,4.45 µM (inactive)
same,GI50,Malme-3M,55.7 µM (inactive)
same,GI50,NCI/ADR-RES,57.7 µM (inactive)
same,GI50,SK-MEL-5,26.1 µM (inactive)
same,GI50,NCI-H460,14.4 µM (inactive)
same,GI50,COLO 205,24 µM (inactive)
same,GI50,NCI-H23,50.1 µM (inactive)
same,GI50,SN12C,25.9 µM (inactive)
same,GI50,KM12,37.8 µM (inactive)
same,GI50,SF-539,12.2 µM (inactive)
same,GI50,PC-3,24.1 µM (inactive)
same,GI50,T47D,18.7 µM (inactive)
same,GI50,MDA-MB-435,23.5 µM (inactive)
same,GI50,TK-10,16.1 µM (inactive)
same,GI50,Hs-578T,> 100 µM (inactive)
same,GI50,NCI-H226,19.5 µM (inactive)
same,GI50,DU-145,39 µM (inactive)
same,GI50,LOX IMVI,14.3 µM (inactive)
same,GI50,M14,15.6 µM (inactive)
